In ChEMBL document CHEMBL5576062 (Bioorg Med Chem Lett, 2024):
Active and inactive are the calls of the source. The rule behind the calls is not given here.

Target: T1, Histone deacetylase 8 (Homo sapiens, UniProt Q9BY41)
T1 sequence (Q9BY41 whole entry): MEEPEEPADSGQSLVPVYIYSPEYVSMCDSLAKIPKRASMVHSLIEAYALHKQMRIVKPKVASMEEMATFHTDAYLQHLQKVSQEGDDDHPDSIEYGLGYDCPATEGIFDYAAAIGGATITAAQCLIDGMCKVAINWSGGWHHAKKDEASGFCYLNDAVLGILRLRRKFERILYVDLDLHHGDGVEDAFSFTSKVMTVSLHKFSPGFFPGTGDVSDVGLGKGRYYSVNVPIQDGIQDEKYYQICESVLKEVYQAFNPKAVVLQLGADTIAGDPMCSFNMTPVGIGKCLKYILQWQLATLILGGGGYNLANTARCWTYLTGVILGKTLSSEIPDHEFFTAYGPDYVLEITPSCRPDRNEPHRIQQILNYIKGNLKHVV
Assay: Inhibition of HDAC8 (unknown origin) by SAMDI high throughput mass spectrometry

`COc1ccc(Cn2ccc3ccc(C(=O)Nc4ccccc4O)cc32)cc1` and `COc1ccc(Cn2ccc3ccc(C(=O)Nc4ccccc4N)cc32)cc1` are within 1.5-fold of each other in IC50: 220 µM for the first, 150 µM for the second.

`COc1ccc(Cn2ccc3ccc(C(=O)Nc4ccccc4SC)cc32)cc1` and `COc1ccc(Cn2ccc3ccc(NC(=O)c4ccccc4SC)cc32)cc1` are within 1.5-fold of each other in IC50: 360 µM for the first, 340 µM for the second.

`COc1ccc(Cn2ccc3ccc(NC(=O)c4ccccn4)cc32)cc1` and `COc1ccc(Cn2ccc3ccc(NC(=O)c4ccccc4O)cc32)cc1` are within 1.5-fold of each other in IC50: 490 µM for the first, 360 µM for the second.

Going from `NC(Cc1ccc(Cl)cc1Cl)C(=O)N1Cc2ccccc2C1` (stereo not given) to `COc1ccc(Cn2ccc3ccc(NC(=O)c4ccccc4N)cc32)cc1`, the IC50 rises from 7.9 µM to 130 µM (16-fold). The first is the more potent here.

`COc1ccc(Cn2ccc3ccc(C(=O)c4nccs4)cc32)cc1` and `COc1ccc(Cn2ccc3ccc(C(=O)c4cc(C)on4)cc32)cc1` are within 1.5-fold of each other in IC50: 210 µM for the first, 200 µM for the second.

Going from `COc1ccc(Cn2ccc3ccc(-c4noc(=S)[nH]4)cc32)cc1` to `COc1ccc(Cn2ccc3ccc(-c4noc(=O)[nH]4)cc32)cc1`, the IC50 falls from 330 µM to 140 µM (2.4-fold). The second is the more potent here.

Going from `COc1ccc(Cn2ccc3ccc(C(=O)NCC(C)O)cc32)cc1` (stereo not given) to `COc1ccc(Cn2ccc3ccc(C(=O)NCCO)cc32)cc1`, the IC50 falls from 890 µM to 170 µM (5.2-fold).

Compared with `COc1ccc(Cn2ccc3ccc(/C(N)=N/O)cc32)cc1`, `CCC(=O)c1ccc2ccn(Cc3ccc(OC)cc3)c2c1` is 2.8-fold lower in IC50: 340 µM for the first, 120 µM for the second.

Going from `COc1ccc(Cn2ccc3ccc(C(=O)NS(=O)(=O)N(C)C)cc32)cc1` to `COc1ccc(Cn2ccc3ccc(C(=O)NS(C)(=O)=O)cc32)cc1`, the IC50 rises from 320 µM to > 1000 µM.

Compared with `COc1ccc(Cn2ccc3ccc(C(=O)C(F)(F)F)cc32)cc1`, `COc1ccc(Cn2ccc3ccc(-c4noc(C(F)(F)F)n4)cc32)cc1` is higher in IC50: 570 µM for the first, > 1000 µM for the second. The first is the more potent here.

Going from `COc1ccc(Cn2ccc3ccc(-c4nn[nH]n4)cc32)cc1` to `CCC(=O)Cc1ccc2ccn(Cc3ccc(OC)cc3)c2c1`, the IC50 falls from > 1000 µM to 240 µM. The second is the more potent here.

With `COc1ccc(Cn2ccc3ccc(C(=O)N/N=C\c4ccccc4O)cc32)cc1` the IC50 was > 1000 µM.

System: not listed separately
Assay: Binding affinity to Zinc ion assessed as metal chelating activity at approximately 1 uM

For `COc1ccc(Cn2ccc3ccc(C(=O)NO)cc32)cc1`, the Activity was “Active”.

System: not listed separately
Assay: Binding affinity to Zinc ion assessed as metal chelating activity

In the case of `NC(Cc1ccc(Cl)cc1Cl)C(=O)N1Cc2ccccc2C1` (stereo not given), the Activity is reported as “inactive”.
